Test results reported in ChEMBL document CHEMBL6109085, “Furazanopyrazine-based novel promising anticancer agents interfering with the eicosanoid biosynthesis pathways by dual mPGES-1 and sEH inhibition” (Eur J Med Chem, 2025).

Assays:
[1] = Microsomal stability in human liver microsomes assessed as intrinsic clearance preincubated for 5 mins followed by NADPH and UDP-GlcUA addition and measured after 30 to 120 mins by UHPLC analysis; format: ADME, Microsome; settings: time 35-125 min, read-out: CLH
[2] = Microsomal stability in human liver microsomes assessed as half-life preincubated for 5 mins followed by NADPH and UDP-GlcUA addition and measured after 30 to 120 mins by UHPLC analysis; format: ADME, Microsome; settings: time 35-125 min
HCT-116 = assay: Antiproliferative activity against human HCT-116 cells assessed as reduction in cell survival index incubated for 48 hrs by MTT assay; settings: HCT-116, 48 h
[3] = Cytotoxicity against human HaCaT cells assessed as reduction in cell survival index incubated for 48 hrs by MTT assay; format: toxicity, cell-based
[4] = molecular target: T1, Bifunctional epoxide hydrolase 2 (Homo sapiens) (UniProt P34913); assay: Inhibition of recombinant human sEH extracted from baculovirus infected Sf9 cells using PHOME as substrate at 10 uM preincubated for 15 mins followed by PHOME substrate addition and measured after 60 mins by fluorescence based analysis relative to control; settings: time 75.0 min
T1 sequence (whole entry): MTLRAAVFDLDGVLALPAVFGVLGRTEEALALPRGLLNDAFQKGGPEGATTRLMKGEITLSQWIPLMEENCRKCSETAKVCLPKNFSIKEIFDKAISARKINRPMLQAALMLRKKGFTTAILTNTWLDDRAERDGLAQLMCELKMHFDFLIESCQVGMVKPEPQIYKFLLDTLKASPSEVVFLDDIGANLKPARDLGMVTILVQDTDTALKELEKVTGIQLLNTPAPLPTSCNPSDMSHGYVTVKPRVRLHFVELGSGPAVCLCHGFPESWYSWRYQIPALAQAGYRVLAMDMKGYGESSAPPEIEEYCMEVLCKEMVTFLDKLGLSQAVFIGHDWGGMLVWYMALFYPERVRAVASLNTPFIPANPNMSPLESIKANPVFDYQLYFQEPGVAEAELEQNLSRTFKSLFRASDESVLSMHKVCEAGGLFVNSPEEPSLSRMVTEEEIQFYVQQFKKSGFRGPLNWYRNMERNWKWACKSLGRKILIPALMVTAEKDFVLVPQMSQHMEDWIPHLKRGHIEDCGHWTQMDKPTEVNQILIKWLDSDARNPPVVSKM

SMILES | microsomal CLint [1] [µL/min/mg] | half-life [2] [h] | inhibition [4] [%] | IC50 (HCT-116) [µM] | IC50 at 48 h [3] [µM]
O=C1c2ccc(OCc3ccccc3)cc2-c2nc3nonc3nc21 | 8.42 | 2.74 | – | – | –
O=C1c2ccc(OCCCc3ccccc3)cc2-c2nc3nonc3nc21 | 4.25 | 5.43 | – | 6.4 | 28
O=C(COc1ccc2c(c1)-c1nc3nonc3nc1C2=O)OCc1ccccc1 | 307 | 0.075 | 48 | – | –
O=C(Oc1ccc2c(c1)-c1nc3nonc3nc1C2=O)c1ccccc1 | 19.9 | 1.16 | – | – | –

Continued, in another order:

microsomal CLint [1] [µL/min/mg] | half-life [2] [h] | inhibition [4] [%] | SMILES | IC50 (HCT-116) [µM] | IC50 at 48 h [3] [µM]
5.82 | 3.97 | – | O=C1c2ccc(OCc3ccc(Br)cc3)cc2-c2nc3nonc3nc21 | – | –
32.3 | 0.715 | – | O=C1c2ccc(OCCc3ccc(F)cc3)cc2-c2nc3nonc3nc21 | – | –
8.73 | 2.65 | – | O=C1c2ccc(OCCc3cccc(C(F)(F)F)c3)cc2-c2nc3nonc3nc21 | 8.3 | 17
